Reference: patent US11473094B2, “Methods for improving competency of plant cells” (Monsanto Technology LLC, priority 2010, dated 2022)

Tested on: Soybean cv. A3555 dry embryos
Assay: Transformation frequency, PEG compared to other osmotic compounds
Assay type: cell-based
Details: 1 hour contact, AB30/OriRi
From the text: It also compares TF enhancement of treatments with various PEG species. Soybean cv. […] dry embryos were excised according to the method described in U.S. Patent Application Publication No. 2008/0280361 and contacted for an hour with various amounts of PEG-4000, PEG-6000, PEG-8000, Mannitol, Sorbitol, or Glycerol dissolved in SDW. The embryos were then rinsed 5-6× with SDW and transformed according to the methods described in U.S. Patent Application Publication No. 2009/0138985. The embryos were transformed with a 2T transformation vector having an OriRi replication of origin and contained in AB30 strain of Agrobacterium. The embryos were regenerated on spectinomycin selection medium.

| SMILES | # R0 Plants (10% in SDW) | TF (10% in SDW) [%] | # R0 Plants (20% in SDW) | TF (20% in SDW) [%] |
| --- | --- | --- | --- | --- |
| OCC(O)CO [glycerol, Glycerol] | 4 | 2.30 | 0 | 0.00 |
| OC[C@@H](O)[C@@H](O)[C@H](O)[C@H](O)CO [mannitol, Mannitol] | 5 | 0.50 | – | – |
| OC[C@@H](O)[C@@H](O)[C@H](O)[C@@H](O)CO [sorbitol, Sorbitol] | 4 | 0.40 | 3 | 0.30 |
